Experimental data as given in patent US6265418A, “N-acylamino acid amide compounds and intermediates for preparation thereof” (Ube Industries, Ltd., priority 1997, dated 2001).
pIC50: −log10 of the molar value. Like-named read-outs stand apart in the source and are kept apart here.

Tests used:
[1] = system: platelet aggregation induced by ADP; experiment: ADP (adenosine diphosphate) induced-platelet aggregation inhibiting activity (in vitro, platelet-rich plasma); type: cell-based, human (healthy volunteer); settings: ADP final concentration 10 μM, 37° C., pre-incubation 5 minutes, prime (') = converted into carboxylic acid compound before test, read-out: in vitro Platelet aggregation inhibition activity IC50
Experimental: ADP (adenosine diphosphate) induced-platelet aggregation inhibiting activity
(1) Preparation Method of Platelet-rich Plasma
By using 0.1 volume of 3.8% sodium citrate as an anticoagulant, citrate-added blood collected from an elbow vein of a healthy volunteer was centrifuged at 500×g (=1600 rpm) for 3 minutes and the supernatant was fractionated as platelet-rich plasma (PRP). The under layer was further centrifuged at 1800×g (3200 rpm) for 15 minutes and the supernatant was fractionated as platelet-poor blood plasma (PPP) and used for ADP aggregation (coagulation) measurement.
(2) Measurement Method of ADP-induced Platelet Aggregation
PRP obtained as mentioned above was diluted by the platelet-poor plasma (PPP) to adjust the number of platelet to 30 to 40×10^4 /μL, and platelet aggregation induced by ADP was measured by using an aggrigometer (available from NBS Co., Hematracer Va.). First, 185 μL of PRP was placed in a glass cuvette for exclusive use, 5 μL of a test compound solution or a solvent (control) for preparing test compound was added thereto, and the mixture was pre-incubated while stirring (1000 ppm) at 37° C. for 5 minutes. Thereafter, 10 μL (final concentration 10 μM) of an ADP solution was added thereto to induce platelet aggregation. Change in transmittance caused by platelet aggregation was recorded for 3 minutes after addition of ADP.
Transmittances of PRP and PPP were made 0 and 100%, respectively, and the maximum transmittance after adding ADP was made the maximum aggregation ratio. The maximum aggregation ratio when the test compound was added divided by that ratio when the solvent for preparation was added was shown in terms of a percentage, and a 50% inhibiting concentration (IC50) was calculated.
Incidentally, when the test compound has a protected carboxyl group, the sample was applied to the test after carrying out the following deprotection treatment. First, the test compound was dissolved in ethanol, and hydrolyzed (at room temperature for 2 hours) by adding an equal volume of a 0.1 N aqueous sodium hydroxide solution. Then, the solution was neutralized by adding a 0.1 N aqueous hydrochloric acid solution, and the resulting solution was diluted by using a preparation solvent (composition: ethanol/0.1 N aqueous sodium hydroxide solution/0.1 N aqueous hydrochloric acid solution=1/1/1) to a predetermined concentration to make a test compound solution.

[2] = system: platelet aggregation induced by ADP; experiment: Ex vivo ADP induced-platelet aggregation inhibiting activity after oral administration to monkeys; type: in vivo; settings: cynomolgus monkeys, ADP 20 μM
Source text: (§1) Ex Vivo ADP Induced-platelet Aggregation Inhibiting Activity
As a test animal, 2 to 3 monkeys (cynomolgus monkeys) born in China were used as one group.
(§2) Test compounds were suspended in a dimethylsulfoxide: 0.5% aqueous sodium carboxymethylcellulose solution (=1:99) and orally administered. To the animals for control group, a dimethylsulfoxide: 0.5% aqueous sodium carboxymethylcellulose solution (=1:99) containing no test compound was orally administered.
With regard to the respective groups, 5 ml of blood was each collected from femoral vein at the predetermined times before and after administration of the test compound by using a syringe to which 3.8% of sodium citrate was added. The resulting citrate-added blood was centrifuged at 80×g (=700 rpm) for 10 minutes, and then, the supernatant was fractionated as platelet rich plasma (PRP). The under layer was further centrifuged at 2000×g (3200 rpm) for 10 minutes and the supernatant was fractionated as platelet-poor plasma (PPP) and used for ADP aggregation (coagulation) measurement.
(§3) PRP was diluted by PPP to adjust the number of platelet to 30 to 40×10^4 /μL, and platelet aggregation induced by ADP was measured by using a nephelometric platelet aggregation meter (available from NBS Co., Hematracer 801). First, 190 μL of PRP was placed in a glass cuvette for exclusive use and pre-incubated while stirring (1000 ppm) at 37° C. for 5 minutes. Thereafter, 10 μL (final concentration 20 μM) of an ADP solution was added thereto to induce platelet aggregation. Change in transmittance caused by platelet aggregation was recorded for 3 minutes after addition of ADP.
(§4) Transmittances of PRP and PPP were made 0 and 100%, respectively, and the maximum transmittance after adding ADP was made the maximum aggregation ratio.
(§5) The platelet aggregation inhibiting ratio was shown in terms of a percentage of the maximum aggregation ratio when the test compound was added divided by the maximum aggregation ratio when the solvent for preparation was added.

[3] = system: platelet aggregation induced by ADP and epinephrine; experiment: Ex vivo ADP induced-platelet aggregation inhibiting activity after oral administration to dogs; type: in vivo; settings: beagle dogs, ADP 10 μM + epinephrine 1 μM
Experimental: as §1
As a test animal, 2 to 3 beagle dogs were used as one group.
as §2
With regard to the respective groups, 5 ml of blood was each collected from cervical vein at the predetermined times before and after administration of the test compound by using a syringe to which 3.8% of sodium citrate was added. The resulting citrate-added blood was centrifuged at 80×g (=700 rpm) for 10 minutes, and then, the supernatant was fractionated as platelet-rich plasma (PRP). The under layer was further centrifuged at 2000×g (3200 rpm) for 10 minutes and the supernatant was fractionated as platelet-poor plasma (PPP) and used for ADP aggregation (coagulation) measurement.
as §3, with “an aggrigometer” for “a nephelometric platelet aggregation meter”, “μL” for “μL (final concentration 20 μM)”, “solution (final concentration 10 μM) and an epinephrine solution (final concentration 1 μM)” for “solution”
as §4, §5

[4] = system: fibrinogen receptor; settings: reported in Thrombosys, Res., 56, 6, 687 (1989); cited from earlier work
[5] = system: platelet aggregation; settings: reported in Thrombosys, Res., 56, 6, 687 (1989); cited from earlier work

For `N=C(N)c1ccc(C(=O)N[C@@H](Cc2ccc([N+](=O)[O-])cc2)C(=O)N2CCc3sc(CC(=O)O)cc3C2)cc1` [Example I-5, 5-[N-(4-amidinobenzoyl)-L-4-nitrophenylalanyl]-4,5,6,7-tetrahydrothieno[3,2-c]pyridin-2-acetic acid.trifluoroacetate], the pIC50 ([1]; Homo sapiens, Platelet) was 7.52.
In the case of `CCOC(=O)Cn1cc2c(n1)CCN(C(=O)[C@H](Cc1ccc([N+](=O)[O-])cc1)NC(=O)c1ccc(C(=N)N)cc1)C2` [Example I-76, Ethyl 5-[N-(4-amidinobenzoyl)-L-4-nitrophenylalanyl]-4,5,6,7-tetrahydropyrazolo[4,3-c]pyridin-2-acetate.trifluoroacetate], the “platelet aggregation inhibiting activities even in oral administration” value [2] was “excellent platelet aggregation inhibiting activities” and the sustained activity [2] was “excellent sustained activity”.
In the case of `CCOC(=O)Cn1cc2c(n1)CCN(C(=O)[C@H](Cc1ccc([N+](=O)[O-])cc1)NC(=O)c1ccc(C(=N)NC(=O)OCC)cc1)C2` [Example I-77, Ethyl 5-[N-[4-(N-ethoxycarbonylamidino)benzoyl]-L-4-nitrophenylalanyl]-4,5,6,7-tetrahydropyrazolo[4,3-c]pyridin-2-acetate], the “platelet aggregation inhibiting activities even in oral administration” value [2] was “excellent platelet aggregation inhibiting activities”, the sustained activity [2] was “excellent sustained activity” and the “ex vivo Platelet aggregation inhibiting ratio” value ([3]; 1 mg/kg p.o., 1 hr) was 60%. The “ex vivo Platelet aggregation inhibiting ratio” value ([3]; 1 mg/kg p.o., 4 hr) was 85% and the “ex vivo Platelet aggregation inhibiting ratio” value ([3]; 1 mg/kg p.o., 8 hr) was 63%.
Work on `N=C(N)c1ccc(C(=O)N[C@@H](Cc2ccc([N+](=O)[O-])cc2)C(=O)N2CCc3nn(CC(=O)O)cc3C2)cc1` [Example I-79, 5-[N-(4-amidinobenzoyl)-L-4-nitrophenylalanyl]-4,5,6,7-tetrahydropyrazolo[4,3-c]pyridin-2-acetic acid.trifluoroacetate] yielded a pIC50 ([1]; Homo sapiens, Platelet) of 7.70.
With `CCOC(=O)Cn1cc2c(n1)CCN(C(=O)[C@H](Cc1ccc([N+](=O)[O-])cc1)NC(=O)c1ccc(C(=N)NO)cc1)C2` [Example I-85, Ethyl 5-[N-[4-(N-hydroxyamidino)benzoyl]-L-4-nitrophenylalanyl]-4,5,6,7-tetrahydropyrazolo[4,3-c]pyridin-2-acetate] the “ex vivo Platelet aggregation inhibiting ratio” value ([3]; 0.3 mg/kg p.o., 1 hr) was 61%, the “ex vivo Platelet aggregation inhibiting ratio” value ([3]; 0.3 mg/kg p.o., 4 hr) was 94% and the “ex vivo Platelet aggregation inhibiting ratio” value ([3]; 0.3 mg/kg p.o., 8 hr) was 41%.
Molecule `N=C(N)c1ccc(C(=O)N[C@@H](Cc2ccc([N+](=O)[O-])cc2)C(=O)N2C3CCC2c2cn(CC(=O)O)nc2C3)cc1` (stereo partly drawn) [Example I-91, 5-[N-(4-amidinobenzoyl)-L-4-nitrophenylalanyl]-4,6-ethano-4,5,6,7-tetrahydropyrazolo[4,3-c]pyridin-2-acetic acid] has a pIC50 ([1]; Homo sapiens, Platelet) of 7.30.
In the case of `CCOC(=O)Cn1cc2c(n1)CCN(C(=O)[C@H](Cc1ccc([N+](=O)[O-])cc1)NC(=O)c1ccc(C(=N)NC(=O)Oc3ccccc3)cc1)C2` [Example I-115, Ethyl 5-[N-[4-(N-phenoxycarbonylamidino)benzoyl]-L-4-nitrophenylalanyl)-4,5,6,7-tetrahydropyrazolo[4,3-c]pyridin-2-acetate], the “ex vivo Platelet aggregation inhibiting ratio” value ([3]; 0.3 mg/kg p.o., 1 hr) was 35%, the “ex vivo Platelet aggregation inhibiting ratio” value ([3]; 0.3 mg/kg p.o., 4 hr) was 43% and the “ex vivo Platelet aggregation inhibiting ratio” value ([3]; 0.3 mg/kg p.o., 8 hr) was 22%.
Work on `C[C@H](NC(=O)c1ccc(C(=N)N)cc1)C(=O)N1CCc2nn(CC(=O)O)cc2C1` [Example I-126, 5-[N-(4-amidinobenzoyl)-L-alanyl]-4,5,6,7-tetrahydropyrazolo[4,3-c]pyridin-2-acetic acid.trifluoroacetate] yielded a pIC50 ([1]; Homo sapiens, Platelet) of 7.10.
`N=C(N)c1ccc(C(=O)N[C@@H](Cc2ccccc2)C(=O)N2CCc3nn(CC(=O)O)cc3C2)cc1` [Example I-128, 5-[N-(4-amidinobenzoyl)-L-phenylalanyl]-4,5,6,7-tetrahydropyrazolo[4,3-c]pyridin-2-acetic acid.trifluoroacetate] gave a pIC50 ([1]; Homo sapiens, Platelet) of 7.30.
Molecule `CN(C(=O)c1ccc(C(=N)N)cc1)[C@@H](Cc1ccc([N+](=O)[O-])cc1)C(=O)N1CCc2nn(CC(=O)O)cc2C1` [Example I-136, 5-[N-(4-amidinobenzoyl)-N-methyl-L-4-nitrophenylalanyl)-4,5,6,7-tetrahydropyrazolo[4,3-c]pyridin-2-acetic acid.trifluoroacetate] has a pIC50 ([1]; Homo sapiens, Platelet) of 7.22.
For `N=C(N)c1ccc(C(=O)N[C@@H](Cc2ccc(OCc3ccccc3)cc2)C(=O)N2CCc3nn(CC(=O)O)cc3C2)cc1` [Example I-138, 5-[N-(4-amidinobenzoyl)-L-O-benzyltyrosyl)-4,5,6,7-tetrahydropyrazolo[4,3-c]pyridin-2-acetic acid.trifluoroacetate], the pIC50 ([1]; Homo sapiens, Platelet) was 7.22.
In the case of “Arg-Gly-Asp-Ser (RGDS; printed: Arg-Gly-Asp-Ser) [peptide derivative such as Arg-Gly-Asp-Ser (hereinafter abbreviated to as RGDS)]”, the pIC50 [1] is given as 5.40, the “antagonistic action against a fibrinogen receptor” value [4] is given as “antagonistic action against a fibrinogen receptor” and the “platelet aggregation inhibiting action” value [5] is given as “platelet aggregation inhibiting action”.
